In ChEMBL document CHEMBL1201862, “PubChem BioAssay data set” (2004):
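96-well plates; 48 h exposure; 5 concentrations. Endpoints by linear interpolation between flanking doses. Not reached: highest tested concentration assigned. GI50 is the concentration that inhibits growth by half.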 The source made the active and inactive calls. Rule as the data show it: active = GI50 up to about 1.1 µM and inactive = higher.

What was measured:
Experiment in all cases: NCI tumour cell line growth inhibition, 48 h
TK-10 = system: TK-10
A498 = system: A498
SF-295 = system: SF-295
SK-MEL-28 = system: SK-MEL-28
NCI-H460 = system: NCI-H460
RXF 393 = system: RXF 393
HT-29 = system: HT-29
Hs-578T = system: Hs-578T
UACC-257 = system: UACC-257
OVCAR-3 = system: OVCAR-3
A549 = system: A549
DU-145 = system: DU-145
SK-MEL-2 = system: SK-MEL-2
SN12C = system: SN12C
SF-268 = system: SF-268
UO-31 = system: UO-31
SW-620 = system: SW-620
HL-60 = system: HL-60
SNB-75 = system: SNB-75
SR = system: SR

Measured: GI50

CCc1n[nH]c(=O)n1/N=C/c1ccc(C)cc1
inactive: TK-10 60.3 µM | A498 79.6 µM | SF-295 > 100 µM | SK-MEL-28 > 100 µM | NCI-H460 > 100 µM | RXF 393 > 100 µM | HT-29 54.3 µM | Hs-578T 3.84 µM | UACC-257 97.7 µM | OVCAR-3 69.5 µM | A549 > 100 µM | DU-145 65.2 µM | SK-MEL-2 > 100 µM | SN12C > 100 µM | SF-268 66.5 µM | UO-31 64.9 µM | SW-620 > 100 µM | HL-60 1.37 µM

O=C(NCCN1CCOCC1)c1ccc(I)cc1
inactive: TK-10 > 100 µM | A498 > 100 µM | SK-MEL-28 > 100 µM | NCI-H460 > 100 µM | HT-29 > 100 µM | Hs-578T > 100 µM | OVCAR-3 > 100 µM | A549 > 100 µM | SN12C > 100 µM | SNB-75 > 100 µM | SF-268 > 100 µM | UO-31 > 100 µM | SW-620 > 100 µM | HL-60 > 100 µM | SR > 100 µM

CCCCOC(=O)NC(=O)c1cn(CCSCCOC(=O)NCCCCCCNC(=O)OCCSCCn2cc(C(=O)NC(=O)OCCCC)c(=O)[nH]c2=O)c(=O)[nH]c1=O
inactive: TK-10 30.1 µM | A498 29.4 µM | SF-295 26.6 µM | SK-MEL-28 > 100 µM | NCI-H460 > 100 µM | RXF 393 22.5 µM | HT-29 > 100 µM | UACC-257 > 100 µM | OVCAR-3 > 100 µM | A549 > 100 µM | SK-MEL-2 56.9 µM | SN12C > 100 µM | SNB-75 19 µM | SF-268 > 100 µM | UO-31 > 100 µM | SW-620 > 10 µM | HL-60 > 100 µM | SR 54.6 µM

COc1cccc(CC2C(=O)N/C(=N\C(C)=O)N2C)c1OC(C)=O (stereo unspecified)
inactive: TK-10 > 100 µM | SF-295 > 100 µM | SK-MEL-28 39 µM | NCI-H460 > 100 µM | RXF 393 > 100 µM | HT-29 > 100 µM | Hs-578T > 100 µM | UACC-257 > 100 µM | OVCAR-3 > 100 µM | A549 > 100 µM | DU-145 > 100 µM | SK-MEL-2 > 100 µM | SN12C > 100 µM | SNB-75 > 100 µM | SF-268 > 100 µM | UO-31 > 100 µM | SW-620 > 100 µM | HL-60 > 100 µM

Cc1c(CN)c(C)c(CN)c(C)c1CN
inactive: TK-10 > 100 µM | SF-295 > 100 µM | SK-MEL-28 > 100 µM | NCI-H460 > 100 µM | HT-29 > 100 µM | UACC-257 > 100 µM | A549 > 100 µM | DU-145 > 100 µM | SK-MEL-2 > 100 µM | SN12C > 100 µM | SNB-75 > 100 µM | SF-268 > 100 µM | SW-620 > 100 µM | HL-60 > 100 µM | SR > 100 µM

N#CC(C#N)/N=N/c1ccc(-c2nc3ccccc3s2)cc1
inactive: TK-10 3.98 µM | A498 11.1 µM | SK-MEL-28 10.4 µM | RXF 393 4.23 µM | HT-29 6.64 µM | UACC-257 3.1 µM | DU-145 5.79 µM | SK-MEL-2 4.73 µM | SN12C 2.78 µM | SNB-75 25.9 µM | UO-31 7.46 µM | SW-620 4.79 µM | SR 3.23 µM

N/C(=N\n1c(=S)[nH]c2ccccc2c1=O)Nn1c(=S)[nH]c2ccccc2c1=O
inactive: TK-10 > 100 µM | A498 > 100 µM | SF-295 > 100 µM | SK-MEL-28 28.2 µM | NCI-H460 44.1 µM | RXF 393 35.3 µM | UACC-257 > 100 µM | OVCAR-3 > 100 µM | A549 > 100 µM | DU-145 > 100 µM | SK-MEL-2 46.6 µM | SNB-75 25.1 µM | SF-268 21.1 µM | UO-31 14.3 µM | SW-620 18.9 µM | SR 20.3 µM

COc1ccc(/C=N/n2c(Cc3ccc(Cl)cc3)n[nH]c2=O)cc1
inactive: A498 39.3 µM | SF-295 19.8 µM | SK-MEL-28 > 100 µM | NCI-H460 > 100 µM | RXF 393 16.8 µM | HT-29 13.6 µM | UACC-257 > 100 µM | OVCAR-3 > 100 µM | A549 43.6 µM | DU-145 30.3 µM | SK-MEL-2 21.6 µM | SN12C 59.7 µM | SNB-75 16.6 µM | UO-31 > 100 µM | SW-620 > 100 µM | SR 37.3 µM

O=C(c1cccc2cc(O)ccc12)c1cn(CCN2CCOCC2)c2ccccc12
inactive: TK-10 21.6 µM | SK-MEL-28 42.6 µM | RXF 393 21.8 µM | HT-29 20.7 µM | UACC-257 21.7 µM | DU-145 30.1 µM | SK-MEL-2 11 µM | SN12C 31.8 µM | SF-268 24 µM | UO-31 24.1 µM | SW-620 22.4 µM | HL-60 28.2 µM | SR 50.2 µM

CCN(C(=O)N[C@H](C(=O)N[C@@H](CSC)C(=O)N[C@@H](C)C(=O)OC)C(C)C)c1ccccc1
inactive: TK-10 13.6 µM | SF-295 17.9 µM | SK-MEL-28 15.3 µM | NCI-H460 15.8 µM | RXF 393 17.7 µM | HT-29 13.2 µM | UACC-257 12.4 µM | OVCAR-3 20 µM | A549 23.6 µM | DU-145 17.4 µM | SK-MEL-2 20.3 µM | SN12C 17.9 µM | SNB-75 12.4 µM | UO-31 17.5 µM | SW-620 14.6 µM | SR 3.83 µM

COC(=O)C1=C(C)NC(C)=C(C(=O)OC)C1c1cccc(N=O)c1
inactive: TK-10 15 µM | A498 35 µM | SF-295 52.8 µM | SK-MEL-28 16.7 µM | NCI-H460 16 µM | RXF 393 13.3 µM | HT-29 16.3 µM | UACC-257 16.6 µM | OVCAR-3 15.7 µM | A549 31.8 µM | DU-145 15.8 µM | SK-MEL-2 15.6 µM | SN12C 18.8 µM | SF-268 17 µM | UO-31 8.38 µM | SW-620 4.78 µM | HL-60 3.85 µM | SR 5.41 µM

COC(=O)C(=O)C(C(=O)C(=O)Nc1ccc(Cl)cc1Cl)c1nc2ccc(Cl)cc2nc1O (stereo unspecified)
inactive: TK-10 69.8 µM | SF-295 > 100 µM | SK-MEL-28 > 100 µM | NCI-H460 > 100 µM | HT-29 > 100 µM | Hs-578T > 100 µM | UACC-257 > 100 µM | OVCAR-3 > 100 µM | A549 > 100 µM | DU-145 > 100 µM | SK-MEL-2 > 100 µM | SN12C > 100 µM | SNB-75 65.2 µM | SF-268 > 100 µM | UO-31 28.4 µM | SW-620 > 100 µM | HL-60 > 100 µM

CC(=O)C1=CCC2c3[nH]c4ccccc4c3CCN2C1 (stereo unspecified)
inactive: TK-10 > 100 µM | A498 > 100 µM | SF-295 98.6 µM | SK-MEL-28 > 100 µM | NCI-H460 45 µM | RXF 393 35.8 µM | HT-29 31.3 µM | UACC-257 > 100 µM | OVCAR-3 31.7 µM | A549 > 100 µM | SK-MEL-2 66.4 µM | SN12C 68.4 µM | SNB-75 15.1 µM | SF-268 69.2 µM | UO-31 > 100 µM | SW-620 > 100 µM | HL-60 45.3 µM | SR 31.8 µM

COc1cc(C2S/C(=C/c3ccccc3)C(=O)N2c2cc(Cl)ccc2Cl)cc(OC)c1OC (stereo unspecified)
inactive: TK-10 > 100 µM | A498 > 100 µM | SF-295 60.3 µM | SK-MEL-28 64.9 µM | NCI-H460 > 100 µM | RXF 393 39.4 µM | HT-29 47.1 µM | UACC-257 > 100 µM | OVCAR-3 32.3 µM | A549 91.8 µM | DU-145 35 µM | SK-MEL-2 38.8 µM | SN12C 45.9 µM | SF-268 21.6 µM | UO-31 55.7 µM | SW-620 36 µM | HL-60 31 µM | SR 44.9 µM

CCOC(=O)C1C(c2ccccc2)=C(c2ccccc2)C(c2ccccc2)=C1c1ccccc1
inactive: TK-10 23.4 µM | A498 20 µM | SF-295 23.6 µM | SK-MEL-28 54.1 µM | NCI-H460 51.8 µM | RXF 393 15.3 µM | HT-29 > 100 µM | UACC-257 > 94.6 µM | OVCAR-3 26.3 µM | A549 33.7 µM | SK-MEL-2 26.9 µM | SN12C 50.7 µM | SNB-75 13.2 µM | SF-268 43 µM | UO-31 45.9 µM | SW-620 81.5 µM | HL-60 57.1 µM | SR 46.8 µM

O=C(N[C@H](CO)[C@H](O)c1ccc([N+](=O)[O-])cc1)C(Cl)Cl [CHLORAMPHENICOL]
inactive: TK-10 > 100 µM | A498 > 100 µM | SF-295 > 100 µM | SK-MEL-28 > 100 µM | NCI-H460 > 100 µM | RXF 393 > 100 µM | HT-29 > 100 µM | UACC-257 > 100 µM | OVCAR-3 > 100 µM | A549 > 100 µM | DU-145 > 100 µM | SK-MEL-2 > 100 µM | SN12C > 100 µM | SNB-75 98.2 µM | SF-268 > 100 µM | UO-31 > 100 µM | SW-620 > 100 µM | HL-60 > 100 µM | SR > 100 µM
